We go through 22 molecules from patent publication US12084472B2 (Ardelyx, Inc., priority 2015, dated 2024).

Some results are limits rather than exact numbers.

The assay addresses T1, human TGR5 (Homo sapiens, UniProt Q8TDU6).
T1 construct: expressed in transfected cells; host or cells: HEK293
T1 sequence (Q8TDU6 1-330): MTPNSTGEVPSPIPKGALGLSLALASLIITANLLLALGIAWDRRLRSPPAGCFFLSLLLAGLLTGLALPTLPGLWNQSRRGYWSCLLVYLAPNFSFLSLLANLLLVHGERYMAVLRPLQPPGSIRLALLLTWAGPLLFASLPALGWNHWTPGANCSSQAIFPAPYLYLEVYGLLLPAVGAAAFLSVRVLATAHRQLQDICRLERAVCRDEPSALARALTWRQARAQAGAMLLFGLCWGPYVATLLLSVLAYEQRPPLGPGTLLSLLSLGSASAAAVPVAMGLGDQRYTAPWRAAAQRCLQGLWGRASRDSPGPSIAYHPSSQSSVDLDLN
The experiment in a line: Cell-based TGR5 assay (cAMP generation, HTRF). The settings on record: HEK293 cells stably transfected with human TGR5; cAMP by HTRF; 30 minutes at 37° C.; read-out: pEC50 Human TGR5 (converted). Put shortly:
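Read-out was HTRF detection of cAMP, converted to concentration via a standard curve and fitted (3-parameter logistic) for pEC50 and maximal response. Agonist stimulation used HEK293 cells stably transfected with human TGR5, incubated 30 min at 37° C in IBMX-containing buffer at 0.05 nM to 10 μM compound.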
Take `CC(CCCC(=O)N(CCOCCO)C[C@H](O)[C@@H](O)[C@H](O)[C@H](O)CO)c1ccc(Cl)c(CNC2(c3cnccc3-c3ccccc3OC3CC3)CC2)c1` (stereo partly drawn) [Compound I-342, 5-{4-chloro-3-[({1-[4-(2-cyclopropoxyphenyl)pyridin-3-yl]cyclopropyl]amino)methyl]phenyl}-N-[2-(2-hydroxyethoxy)ethyl]-N-[(2S,3R,4R,5R)-2,3,4,5,6-pentahydroxyhexyl]hexanamide]: the EC50 is less than 100 nM.

As for `Clc1ccc(Cl)c(CNC2(c3cnccc3-c3ccccc3Cl)CC2)c1` [Compound I-16, 1-[4-(2-chlorophenyl)pyridin-3-yl]-N-[(2,5-dichlorophenyl)methyl]cyclopropan-1-amine], the EC50 was 1260 to 10000 nM.

Consider `COc1cc(C)c(CNC2(c3cnccc3-c3ccccc3OC3CC3)CC2)cc1C` [Compound I-29, 1-[4-(2-cyclopropoxyphenyl)pyridin-3-yl]-N-[(4-methoxy-2,5-dimethylphenyl)methyl]cyclopropan-1-amine], for which the EC50 was 126 to 1000 nM.

Consider `O=C(NC[C@H](O)[C@@H](O)[C@H](O)[C@H](O)CO)NC1CCC(CCNS(=O)(=O)c2ccc(Cl)c(COC3(c4cnccc4-c4ccccc4OC4CC4)CC3)c2)CC1` (stereo partly drawn) [Compound I-422, 1-(4-{2-[4-chloro-3-({1-[4-(2-cyclopropoxyphenyl)pyridin-3-yl]cyclopropoxy}methyl)benzenesulfonamido]ethyl}cyclohexyl)-3-[(2S,3R,4R,5R)-2,3,4,5,6-pentahydroxyhexyl]urea], for which the EC50 was less than 100 nM.

Turning to `CN(C[C@H](O)[C@@H](O)[C@H](O)[C@H](O)CO)C(=O)CN1CCN(C(=O)CCCCc2cc(Cl)c(COC3(c4cnccc4-c4ccccc4OC4CC4)CC3)cc2Cl)CC1` [Compound I-89, 2-(4-(5-(2,5-dichloro-4-((1-(4-(2-cyclopropoxyphenyl)pyridin-3-yl)cyclopropoxy)methyl)phenyl)pentanoyl)piperazin-1-yl)-N-methyl-N-((2S,3R,4R,5R)-2,3,4,5,6-pentahydroxyhexyl)acetamide], the EC50 was less than 100 nM.

`O=C(NCCN1CCN(S(=O)(=O)c2ccc(Cl)c(COC3(c4cnccc4-c4ccccc4OC4CC4)CC3)c2)CC1)NC[C@H](O)[C@@H](O)[C@H](O)[C@H](O)CO` [Compound I-425, 1-(2-{4-[4-chloro-3-({1-[4-(2-cyclopropoxyphenyl)pyridin-3-yl]cyclopropoxy}methyl)benzenesulfonyl]piperazin-1-yl}ethyl)-3-[(2S,3R,4R,5R)-2,3,4,5,6-pentahydroxyhexyl]urea]: the EC50 is 126 to 1000 nM.

Regarding `Cc1cc(CNC2(c3cnccc3-c3ccccc3OC3CC3)CC2)c(Cl)cc1CCCCC(=O)NC[C@H](O)[C@@H](O)[C@H](O)[C@H](O)CO` [Compound I-142, 5-{5-chloro-4-[({1-[4-(2-cyclopropoxyphenyl)pyridin-3-yl]cyclopropyl}amino)methyl]-2-methylphenyl}-N-[(2S,3R,4R,5R)-2,3,4,5,6-pentahydroxyhexyl]pentanamide], the EC50 was less than 100 nM.

As to `CN(CCCCN(CCS(C)(=O)=O)C(=O)[C@@H](O)[C@@H](O)[C@H](O)[C@@H](O)CO)S(=O)(=O)c1ccc(Cl)c(COC2(c3cnccc3-c3ccccc3OC3CC3)CC2)c1` [Compound I-459, (2S,3S,4R,5S)-2,3,4,5,6-pentahydroxy-N-(2-methanesulfonylethyl)-N-{4-[N-methyl4-chloro-3-({1-[4-(2-cyclopropoxyphenyl)pyridin-3-yl]cyclopropoxy}methyl)benzenesulfonamido]butyl}hexanamide], the EC50 was less than 100 nM.

As for `C[C@@H](CCCCN)c1ccc(Cl)c(COC2(c3cnccc3-c3ccccc3OC3CC3)CC2)c1` (single isomer, unassigned) [Compound I-246], the EC50 was 126 to 1000 nM.

`Cc1ccc(C(C)CCCC(=O)N(CC(N)=O)C[C@H](O)[C@@H](O)[C@H](O)[C@H](O)CO)cc1CNC1(c2cnccc2-c2ccccc2OC2CC2)CC1` (stereo partly drawn) [Compound I-356, N-(carbamoylmethyl)-5-{3-[({1-[4-(2-cyclopropoxyphenyl)pyridin-3-yl]cyclopropyl}amino)methyl]-4-methylphenyl}-N-[(2S,3R,4R,5R)-2,3,4,5,6-pentahydroxyhexyl]hexanamide]: the EC50 is less than 100 nM.

For the molecule `CCNC(=O)[C@H](N)CCCCNS(=O)(=O)c1ccc(Cl)c(COC2(c3cnccc3-c3ccccc3OC3CC3)CC2)c1` [Compound I-481, (2R)-2-amino-6-[4-chloro-3-({1-[4-(2-cyclopropoxyphenyl)pyridin-3-yl]cyclopropoxy}methyl)benzenesulfonamido]-N-ethylhexanamide], the EC50 is less than 100 nM.

With `O=C(NCCCSc1ccc(Cl)c(COC2(c3cnccc3-c3ccccc3OC3CC3)CC2)c1)NC[C@H](O)[C@@H](O)[C@H](O)[C@H](O)CO` [Compound I-625, 1-(3-{[4-chloro-3-({1-[4-(2-cyclopropoxyphenyl)pyridin-3-yl]cyclopropoxy}methyl)phenyl]sulfanyl}propyl)-3-[(2S,3R,4R,5R)-2,3,4,5,6-pentahydroxyhexyl]urea], the EC50 is less than 100 nM.

Turning to `Cc1ccc(C(C)CCCC(=O)N(CCS(C)(=O)=O)C[C@H](O)[C@@H](O)[C@H](O)[C@H](O)CO)cc1CNC1(c2cnccc2-c2ccccc2OC2CC2)CC1` (stereo partly drawn) [Compound I-369, 5-{3-[({1-[4-(2-cyclopropoxyphenyl)pyridin-3-yl]cyclopropyl}amino)methyl]-4-methylphenyl}-N-(2-methanesulfonylethyl)-N-[(2S,3R,4R,5R)-2,3,4,5,6-pentahydroxyhexyl]hexanamide], the EC50 is less than 100 nM.

On to `CC(CCCC(=O)N(C)C[C@H](O)[C@@H](O)[C@H](O)[C@H](O)CO)c1ccc(Cl)c(CNC2(c3cnccc3-c3ccccc3OC3CC3)CC2)c1` (stereo partly drawn) [Compound I-327, 5-{4-chloro-3-[({1-[4-(2-cyclopropoxyphenyl)pyridin-3-yl]cyclopropyl}amino)methyl]phenyl}-N-methyl-N-[(2S,3R,4R,5R)-2,3,4,5,6-pentahydroxyhexyl]hexanamide], for which the EC50 is less than 100 nM.

For the molecule `Cc1ccc(SCCCC(=O)NC[C@H](O)[C@@H](O)[C@H](O)[C@H](O)CO)cc1COC1(c2cnccc2-c2ccccc2OC2CC2)CC1` [Compound I-651, 4-{[3-({1-[4-(2-cyclopropoxyphenyl)pyridin-3-yl]cyclopropoxy}methyl)-4-methylphenyl]sulfanyl}-N-[(2S,3R,4R,5R)-2,3,4,5,6-pentahydroxyhexyl]butanamide], the EC50 is less than 100 nM.

For `CC(CCCC(=O)N[C@@H](CO)[C@@H](O)[C@H](O)[C@H](O)CO)c1ccc(Cl)c(CNC2(c3cnccc3-c3ccccc3OC3CC3)CC2)c1` (stereo partly drawn) [Compound I-313, 5-{4-chloro-3-[({1-[4-(2-cyclopropoxyphenyl)pyridin-3-yl]cyclopropyl}amino)methyl]phenyl}-N-[(2S,3R,4S,5R)-1,3,4,5,6-pentahydroxyhexan-2-yl]hexanamide], the EC50 is less than 100 nM.

For `CCN(CCCCNC(=O)N[C@@H](CO)[C@@H](O)[C@H](O)[C@H](O)CO)S(=O)(=O)c1ccc(Cl)c(CNC2(c3cnccc3-c3ccccc3OC3CC3)CC2)c1` [Compound I-696, 1-[4-(N-ethyl[4-chloro-3-[([1-[4-(2-cyclopropoxyphenyl)pyridin-3-yl]cyclopropyl]amino)methyl]benzene]sulfonamido)butyl]-3-[(2S,3R,4S,5R)-1,3,4,5,6-pentahydroxyhexan-2-yl]urea], the EC50 is less than 100 nM.

Turning to `O=C(NCCOCCNS(=O)(=O)c1ccc(Cl)c(COC2(c3cnccc3-c3ccccc3OC3CC3)CC2)c1)NC[C@H](O)[C@@H](O)[C@H](O)[C@H](O)CO` (stereo in doubt) [Compound I-403, 1-(2-{2-[4-chloro-3-({1-[4-(2-cyclopropoxyphenyl)pyridin-3-yl]cyclopropoxy}methyl)benzenesulfonamido]ethoxy}ethyl)-3-[(2S,3R,4R,5R)-2,3,4,5,6-pentahydroxyhexyl]urea], the EC50 is less than 100 nM.

Take `O=C(CCN1CCN(S(=O)(=O)c2ccc(Cl)c(COC3(c4cnccc4-c4ccccc4OC4CC4)CC3)c2)CC1)NC[C@H](O)[C@@H](O)[C@H](O)[C@H](O)CO` [Compound I-443, 3-{4-[4-chloro-3-({1-[4-(2-cyclopropoxyphenyl)pyridin-3-yl]cyclopropoxy}methyl)benzenesulfonyl]piperazin-1-yl}-N-[(2S,3R,4R,5R)-2,3,4,5,6-pentahydroxyhexyl]propanamide]: the EC50 is 126 to 1000 nM.

Turning to `Clc1ccc(Cl)c(CNC2(c3cnccc3-c3ccccc3OC3CC3)CC2)c1` [Compound I-1, 1-[4-(2-cyclopropoxyphenyl)pyridin-3-yl]-N-[(2,5-dichlorophenyl)methyl]cyclopropan-1-amine], the EC50 was less than 100 nM.

With `O=C([C@@H](O)[C@@H](O)[C@H](O)[C@@H](O)CO)N(CCCSc1ccc(Cl)c(CNC2(c3cnccc3-c3ccccc3OC3CC3)CC2)c1)C1CCS(=O)(=O)CC1` [Compound I-552, (2S,3S,4R,5S)-N-[3-({4-chloro-3-[({1-[4-(2-cyclopropoxyphenyl)pyridin-3-yl]cyclopropyl}amino)methyl]phenyl}sulfanyl)propyl]-N-(1,1-dioxo-1λ^6-thian-4-yl)-2,3,4,5,6-pentahydroxyhexanamide], the EC50 is 1260 to 10000 nM.

As to `CC(CCCN(C)C(=O)[C@@H](O)[C@@H](O)[C@H](O)[C@@H](O)CO)c1ccc(Cl)c(CNC2(c3cnccc3-c3ccccc3OC3CC3)CC2)c1` (stereo partly drawn) [Compound I-258, (2S,3S,4R,5S)-N-(4-[4-chloro-3-[([1-[4-(2-cyclopropoxyphenyl)pyridin-3-yl]cyclopropyl]amino)methyl]phenyl]pentyl)-2,3,4,5,6-pentahydroxy-N-methylhexanamide], the EC50 was less than 100 nM.
